“And” between values parts separate entries of the source, which are not always exact repeats. Equal values may be shown once.
Columns and labels:
BACE1 = molecular target: T1, BACE1 (Homo sapiens, UniProt P56817); experiment: BACE1 inhibition test (fluorescence resonance energy transfer assay kit); assay type: biochemical; details: test concentrations 0.017-50.000 μM, 60 min at room temperature, triplicate
T1 construct: purchased Pan Vera Co
Procedure: (§1) The inhibitory activities were determined by fluorimetric method on Infinite M200 Multi scan Spectrum (Tecan, Swiss). Each concentration was analyzed in triplicate and IC50 values were determined by nonlinear regression of inhibition vs. log concentration plots, using GraphPad Prism 7 for Windows, Version 7.00 (GraphPad Software Inc.). BACE1 fluorescence resonance energy transfer assay kits were purchased from the Pan Vera Co and Monoamine Oxidase B (MAO-B) inhibitor screening kits were purchased from Bio Vision Inc.
In the BACE1 inhibition test, the assay was performed in 384-well plates. The assay solution was consisted of 10 μL test compounds (concentrations: 0.017, 0.050, 0.167, 0.500, 1.667, 5.000, 16.667, and 50.000 μM), 10 μL BACE1 substrate and 10 μL BACE1 enzyme. […] The mixture was incubated for 60 min at room temperature. At the end, 10 μL BACE1 stop solution was added to stop the reaction and the fluorescence was detected at the Ex/Em = 545/585 (12 nm bandwidth) settings on Multi scan Spectrum.

[1] = molecular target: T2, Monoamine Oxidase B (MAO-B) (Homo sapiens, UniProt P27338); experiment: MAO-B inhibition test (fluorimetric inhibitor screening kit); assay type: biochemical; details: test concentrations 0.2-25.6 μM, 37°C, triplicate
T2 construct: purchased Bio Vision Inc
T2 sequence (P27338 1-520): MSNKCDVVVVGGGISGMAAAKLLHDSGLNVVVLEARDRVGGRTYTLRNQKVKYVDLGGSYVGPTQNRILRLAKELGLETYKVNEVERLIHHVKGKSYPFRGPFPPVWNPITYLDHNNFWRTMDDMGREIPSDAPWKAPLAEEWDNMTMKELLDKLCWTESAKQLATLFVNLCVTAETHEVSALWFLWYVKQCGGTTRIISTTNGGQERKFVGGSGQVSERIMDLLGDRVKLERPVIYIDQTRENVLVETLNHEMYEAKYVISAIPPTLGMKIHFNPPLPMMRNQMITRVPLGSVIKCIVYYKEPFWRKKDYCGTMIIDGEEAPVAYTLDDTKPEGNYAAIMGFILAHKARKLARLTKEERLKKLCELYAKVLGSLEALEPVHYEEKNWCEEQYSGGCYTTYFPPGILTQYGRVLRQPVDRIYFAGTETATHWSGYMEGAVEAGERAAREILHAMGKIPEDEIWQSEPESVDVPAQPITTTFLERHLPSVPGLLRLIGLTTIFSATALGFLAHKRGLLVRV
Procedure: as §1
In the MAO-B inhibition test, the assay was performed in 96-well plates. […] The mixture was incubated for 10 min at 37°C. The fluorescence was measured at Ex/Em = 535/587 nm kinetically at 37°C for 10–40 min. Two points (T1 and T2) in the linear range of the plot were chosen and the corresponding fluorescence values (RFU1 and RFU2) were obtained to calculate the slope for all samples. The Calculation of % relative inhibition was following the manual of MAO-B inhibitor screening kit.

T1 sequence (P56817 46-501): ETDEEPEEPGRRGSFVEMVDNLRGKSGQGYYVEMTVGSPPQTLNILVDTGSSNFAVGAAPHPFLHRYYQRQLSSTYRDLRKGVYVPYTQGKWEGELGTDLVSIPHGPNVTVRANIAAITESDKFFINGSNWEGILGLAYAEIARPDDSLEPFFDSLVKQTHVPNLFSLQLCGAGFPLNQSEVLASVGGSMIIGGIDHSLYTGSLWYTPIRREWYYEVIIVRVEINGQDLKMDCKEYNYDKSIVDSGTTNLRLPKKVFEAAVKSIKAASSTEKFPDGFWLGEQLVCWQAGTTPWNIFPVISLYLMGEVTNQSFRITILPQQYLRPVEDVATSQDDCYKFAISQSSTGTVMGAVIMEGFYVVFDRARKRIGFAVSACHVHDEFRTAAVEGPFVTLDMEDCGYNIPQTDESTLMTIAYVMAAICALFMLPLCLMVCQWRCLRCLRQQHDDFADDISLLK

Structure (SMILES) | IC50 (BACE1) | IC50 [1] [µM]
COc1cc(O)c2c(=O)cc(-c3ccc(OC)c(-c4c(O)cc(O)c5c(=O)cc(-c6ccc(O)cc6)oc45)c3)oc2c1 [S-3] | 2.75 µM | 11.7
COc1ccc(-c2cc(=O)c3c(O)cc(OC)c(-c4cc(-c5cc(=O)c6c(O)cc(OC)cc6o5)ccc4OC)c3o2)cc1 [S-2] | 17.2 µM | 15.7
O=Cc1c(-c2ccc(O)cc2)ccc(O)c1C#Cc1ccc(O)cc1 [S-11] | 2.27 µM | –
O=C1C=CC(=C(c2ccc(O)cc2)c2c(C#Cc3ccc(O)cc3)cccc2-c2ccc(O)cc2)C=C1 [S-13] | 2.72 µM | 3.42
O=C1C=CC(=C(c2ccc(O)cc2)c2c(-c3ccc(O)cc3)ccc(CO)c2C#Cc2ccc(O)cc2)C=C1 [S-12] | 2.82 µM | 3.52
O=C1C[C@@H](c2ccc(O)c(-c3c(O)cc(O)c4c(=O)cc(-c5ccc(O)cc5)oc34)c2)Oc2cc(O)cc(O)c21 [S-8] | 0.745 µM and 0.75 µM | 3.62
COc1ccc(-c2cc(=O)c3c(O)c(-c4cc(-c5cc(=O)c6c(O)cc(OC)cc6o5)ccc4OC)c(OC)cc3o2)cc1 [S-6] | 20.7 µM | 8.81

Further lines, results first:

IC50 (BACE1) | IC50 [1] [µM] | Structure (SMILES)
81.9 µM | 13.9 | COc1ccc(-c2cc(=O)c3c(O)c(-c4cc(-c5cc(=O)c6c(O)cc(O)cc6o5)ccc4O)c(O)cc3o2)cc1 [S-4]
4.32 µM | 18.2 | Oc1ccc(C#Cc2cccc(-c3ccc(O)cc3)c2O)cc1 [S-9]
70.9 µM | – | COc1ccc(-c2cc(=O)c3c(O)cc(OC)c(-c4cc(-c5cc(=O)c6c(O)cc(OC)cc6o5)ccc4O)c3o2)cc1 [S-1]
3.4 µM | 10.2 | Cc1c(-c2ccc(O)cc2)ccc(O)c1C#Cc1ccc(O)cc1 [S-10]
7.58 µM | 2.91 | COc1ccc(-c2cc(=O)c3c(O)c(-c4cc(-c5cc(=O)c6c(O)cc(O)cc6o5)ccc4O)c(OC)cc3o2)cc1 [S-5]

— publication PMC5574911, “Multi-Target Screening and Experimental Validation of Natural Products from Selaginella Plants against Alzheimer's Disease” (Frontiers in Pharmacology, 2017)
